From patent publication US20250276968A1, “8- AND 6-SUBSTITUTED PYRIDOPYRIMIDINE DERIVATIVES AS KRAS INHIBITORS” (Beta Pharma, Inc., priority 2022, published 2025) come the findings set out here.

SMILES strings stand for the structures.

The data set can be described thus: Pharmacokinetics in male CD-1 mice (IV and PO dosing). It counts as in vivo. To be noted: mean plasma. As to the method: The pharmacokinetic profile of the Example 1 (compound 1a) was determined in male CD-1 mice by WuXi AppTec Co., Ltd., 1318 Wuzhong Avenue, Wuzhong District, Suzhou, China, 215104.

Where the note is “3 mg/kg IV”, `C=C(F)C(=O)N1CCN(c2nc(OC[C@@H]3CCCN3C)nc3cc(-c4cccc5cccc(Cl)c45)cnc23)C[C@@H]1CC#N` [Example 1, 2-((S)-4-(7-(8-Chloronaphthalen-1-yl)-2-(((S)-1-methylpyrrolidin-2-yl)methoxy)pyrido[3,2-d]pyrimidin-4-yl)-1-(2-fluoroacryloyl)piperazin-2-yl)acetonitrile] gave an AUCExtra of 9.23%, an AUMCExtra of 35.2% and a Tlast of 8.00 h. Also, for the setting “30 mg/kg PO”, the AUCExtra amounted to 17.1%, the AUMCExtra turned out to be 43.8% and the Tlast turned out to be 8.00 h.
